According to patent US20100325756A1, “PLASTID TRANSFORMATION UTILIZING ENDOGENOUS REGULATORY ELEMENTS” (priority 2009, published 2010):

Columns and labels:
Format in all cases: cell-based
[1] = test system: L. sativa cultivar Romaine (LR) leaf explants; test: Direct shoot regeneration from leaf explants, cultivar Romaine (LR)
Procedure: (§1) Seeds of L. sativa cultivars (New England Seed Co., Hartford, Conn.) were disinfected in a solution of 30% commercial bleach with 0.01%, Tween-20 for 5 min, rinsed five times in sterile water and placed on half strength Murashige and Skoog (MS; Murashige and Skoog, 1962) medium solidified with 0.6% Phytablend® (Caisson, N. Logan, Utah). After 21 days, fully expanded first leaves were dissected into 0.8 cm^2 and placed adaxial side on the medium. The culture medium was composed of MS basal salts, 3% sucrose and 0.6% Phytablend. Plant growth regulators were added to the medium as shown in table 1 and pH was adjusted to 5.8 prior autoclaving. Cultures were maintained at 26±2° C. at 40 μE m^2 s^−1 photon density; 16 hrs light/8 hrs dark.

[2] = test system: L. sativa cultivar Simpson Elite (LS) leaf explants; test: Direct shoot regeneration from leaf explants, cultivar Simpson Elite (LS)
Procedure: as §1

[3] = test system: L. sativa cultivar Great Lake (LG) leaf explants; test: Direct shoot regeneration from leaf explants, cultivar Great Lake (LG)
Procedure: as §1

[4] = test system: L. sativa cultivar Lentissima (LL) leaf explants; test: Direct shoot regeneration from leaf explants, cultivar Lentissima (LL)
Procedure: as §1

[5] = test system: L. sativa cultivar Evola (LE) leaf explants; test: Direct shoot regeneration from leaf explants, cultivar Evola (LE)
Procedure: as §1

Measured: EFF: Number of regenerated shoots/total explants

c1ccc(CNc2ncnc3[nH]cnc23)cc1 [BAP]
0: [1]; BAP 0.1 μg ml^−1 alone | [2]; BAP 0.1 μg ml^−1 alone | [3]; BAP 0.1 μg ml^−1 alone | [4]; BAP 0.1 μg ml^−1 alone | [5]; BAP 0.1 μg ml^−1 alone

O=C(O)Cc1cccc2ccccc12 [NAA]
0: [1]; NAA 0.1 μg ml^−1 alone | [2]; NAA 0.1 μg ml^−1 alone | [3]; NAA 0.1 μg ml^−1 alone | [4]; NAA 0.1 μg ml^−1 alone | [5]; NAA 0.1 μg ml^−1 alone
